# Assay results published in ChEMBL document CHEMBL3507680, “University of Dundee, Gates Library screen for HepG2 cell viability”.
# Assay: Human HepG2 cell viability assay in 384 well format
# Format: toxicity, cell-based
# Set-up: dose 125 nL, time 70.5 hour; cytotoxicity at 70.5 h: concentration not given beside the values
# Settings: HepG2 cells, read-out: Inhibition
row,Structure (SMILES),cytotoxicity at 70.5 h
1,CC(C)(C(=O)NCC1CC1)c1ccccc1F,-4.02%
2,Cc1cnn(CC(C)NCc2nc(-c3cccnc3)no2)c1 (stereo not drawn),3.38%
3,CCc1ccc(C(=O)N2CCCC(n3cncn3)C2)o1 (stereo not drawn),-2.71%
4,O=C(c1ccc(Br)o1)N1CCCC(n2cncn2)C1 (stereo not drawn),-3.18%
5,NC(=O)CSCCC(=O)N1CCCC1c1ccsc1 (stereo not drawn),-6.66%
6,CCCc1n[nH]c(C2CN(C(=O)CCCn3cccn3)CCO2)n1 (stereo not drawn),-7.13%
7,CCCc1n[nH]c(C2CN(CCn3cccn3)CCO2)n1 (stereo not drawn),-6.79%
8,CCC(CC)c1cc(C(=O)N2CCCC(n3cncn3)C2)on1 (stereo not drawn),-1.84%
9,c1cnc(N2CCCC3(COCCN(c4nncs4)C3)C2)cn1 (stereo not drawn),-6.49%
10,O=C1CC(c2ccccc2)C2(CCN(Cc3ccncc3)CC2)N1 (stereo not drawn),-12.7%
11,CN(C)C(=O)[C@@H]1C[C@@H]2CCN(Cc3ccncc3)C[C@@H]2O1,-11.6%
12,O=C(Nc1cccnc1)[C@@H]1C[C@H]2OCC[C@H]2N(Cc2nccs2)C1,-6.06%
13,Cc1ccc(CN2C[C@@H](C(=O)Nc3cccnc3)C[C@H]3OCC[C@H]32)o1,21.9%
14,CN(C)C(=O)COCC1CN(Cc2ccoc2)Cc2nnn(C)c21 (stereo not drawn),15%
15,Cn1nc(CN2CCCCC2)c2c1CN(C(=O)c1cccc(Cl)c1)C2,40.4%
16,O=C1COC2(CCN(C(=O)[C@H]3CCCO3)CC2)CN1Cc1ccccn1,17.4%
17,Cn1nc(CN2CCCCC2)c2c1CN(C(=O)c1ccccc1)C2,23.3%
18,Cc1ccc(CNCC2Cn3nnc(-c4cnn(C)c4)c3CO2)o1 (stereo not drawn),15.6%
19,c1cc(-c2nnn3c2COC(CNCc2nccs2)C3)ccn1 (stereo not drawn),-0.24%
20,Cn1cccc1C(=O)N1Cc2c(CN3CCCCC3)nn(C)c2C1,0.721%
21,CS(=O)(=O)N1CCC(c2nnc3ccc(C(=O)NC4CCC4)cn23)C1 (stereo not drawn),12.6%
22,COC[C@@H]1CC[C@H]2[C@H](CCN2S(=O)(=O)c2cccc(F)c2)O1,-5.66%

row,Structure (SMILES),cytotoxicity at 70.5 h
1,CC(C)NC(=O)CC1CC2(CCN(S(C)(=O)=O)CC2)c2ccccc21 (stereo not drawn),3.25%
2,CCS(=O)(=O)N1CCC2(CC1)CC(CC(=O)NC1CC1)c1ccccc12 (stereo not drawn),17.6%
3,Cc1noc(C)c1CN1CCO[C@H]2CN(Cc3cccnc3)C[C@H]21,-4.34%
4,O=C(c1cocn1)N1C[C@H]2CCC[C@@]2(COCc2cccnc2)C1,-1.51%
5,COCCN1C[C@H]2[C@@H](C1)N(C(=O)CCc1ccccc1)CC[C@H]2OC,-10.6%
6,COCCN1C[C@H]2[C@@H](C1)N(C(=O)c1cccc(OC)c1)CC[C@H]2OC,-2.65%
7,CN1CC(=O)N(c2ccsc2)CC12CCN(C(=O)c1ccc[nH]1)C2 (stereo not drawn),8.85%
8,COCC1CN(Cc2ccccn2)Cc2nn(C)cc21 (stereo not drawn),-7.74%
9,COC(=O)C1CCN(CC2(c3ccc(C)cn3)CCNCC2)CC1,-2.35%
10,CCN(C(C)=O)C1CCN(c2nccc(CCC(F)(F)F)n2)C1 (stereo not drawn),-22.6%
11,Cc1ccc(-n2nc(C)c3c2NC(=O)CC3c2cnc(N)s2)cc1 (stereo not drawn),-0.62%
12,Cc1c(C(=O)N2CCCC(C(=O)c3nccn3C)C2)c[nH]c(=O)c1C#N (stereo not drawn),-7.06%
13,CCc1c(C(=O)N2CCN(C)[C@@H]3CS(=O)(=O)C[C@@H]32)[nH]c2ccccc12,-0.756%
14,O=C(N[C@@H]1CCN(C(=O)C2CCOCC2)C[C@H]1O)c1ccccn1,-4.74%
15,c1csc(CCNc2nc(-c3ccncc3)nc3c2CCNCC3)c1,-6.1%
16,O=C(CCn1cccn1)N1CC[C@@H](c2ccc3ccccc3c2)[C@H](O)C1,3.07%
17,Cc1ncc(CN2CCC3(CCCN(CC4CCC4)C3)C2)cn1 (stereo not drawn),-4.13%
18,CN1CCN(Cc2nnc(C3CCN(C(CO)CO)CC3)n2C)CC1,-23.4%
19,OCCc1cn(CC2CCCN(Cc3nccs3)C2)nn1 (stereo not drawn),11.8%
20,CN(C)C1(CNc2nccc(-c3cnn(C)c3)n2)CCSC1 (stereo not drawn),-0.261%
21,COCCN1C(=O)[C@H]2CC[C@@H]1CN(C(=O)CCc1n[nH]c(C)c1C)C2,-13.9%
22,CCC[C@H]1CN(Cc2cscn2)C[C@@H]1NC(=O)C1(COC)CCC1,-4.5%

row,Structure (SMILES),cytotoxicity at 70.5 h
1,CCn1c(C2CCCN(S(=O)(=O)C3CC3)C2)nn(CCN(C)C)c1=O (stereo not drawn),0.856%
2,CC(C)CN(Cc1ccccn1)Cc1ccccc1OCC(=O)O,-9.42%
3,CCC[C@H]1CN(S(=O)(=O)c2ccc(CC)s2)C[C@@H]1N,18.1%
4,Cc1ccc(-c2noc([C@H](N)CC(C)C)n2)nn1,7.92%
5,NC(=O)c1ccc(-n2ccnc2C2CC2)cc1N1CCCC1,-3.29%
6,COCc1noc(-c2ccc(N3CCCCC3CCCO)nc2)n1 (stereo not drawn),-3.48%
7,CCCn1c(C)c(CC(=O)N[C@H](C)C(=O)OC)c2c1CC(C)(C)CC2=O,-0.686%
8,CCCc1nnc(C(=O)N(C)Cc2ccc(OC)cc2)o1,-2.69%
9,CN1CCC(c2n[nH]c(=O)n2CC2CCCCC2)CC1,-8.59%
10,Cn1ncc2c(NCCOCc3ccccc3)nc(C3CCCC3)nc21,-3.35%
11,C[C@H]1CC[C@H](C(=O)N2CCC(n3cc(C4(O)CCCC4)nn3)CC2)CC1,-16.2%
12,CSCCCNC(=O)C1CCC(=O)N(C2CCCC2)C1 (stereo not drawn),-3.06%
13,O=C1CCCN1C1CCCN(CCn2cc(Cl)cn2)C1 (stereo not drawn),-26.9%
14,O=C(CC1CCC1)N1CCCC(CO)(CC2CC2)C1 (stereo not drawn),-7.78%
15,CC(C)[C@@H]1CN(C(=O)c2ccsc2)C[C@H]1C(=O)O,-6.74%
16,Cc1ccccc1CC(C)NCc1c(C)nn(C)c1N1CCOCC1 (stereo not drawn),-0.684%
17,Cc1ccccc1CN1CC[C@H]2C[C@H](C(=O)N(C)C)O[C@H]2C1,-12.7%
18,COc1ccc(CN2CCC3(CC2)NC(=O)CC3c2cnn(C)c2)cc1 (stereo not drawn),-8.08%
19,CC(=O)N1CCC2(CCCN2Cc2cnn(C)c2)CC1,-10%
20,CCn1nc(C)cc1C(=O)N1C[C@H]2CCC[C@@]2(COc2ccccn2)C1,-7.77%
21,Cc1cc(CN2C[C@@H]3COC[C@]3(CNC(=O)c3ccsc3)C2)no1,-8.24%
22,O=C(C1CCOCC1)N1C[C@H]2CCC[C@@]2(COc2ccccn2)C1,-11.3%

row,Structure (SMILES),cytotoxicity at 70.5 h
1,O=C(Nc1cnccn1)[C@@H]1C[C@H]2OCC[C@H]2N(Cc2ccsc2)C1,-7.42%
2,CN(C)C[C@]12COC[C@H]1CN(C(=O)Cc1ccc3c(c1)OCO3)C2,-9.79%
3,Cn1cc(CN2CCCC23CCN(C(=O)c2ccccn2)CC3)cn1,18.2%
4,Cn1cc(CN2CCCC23CCN(C(=O)c2ccncc2)CC3)cn1,20.3%
5,c1ccn(Cc2nnc3n2CCCN(Cc2ccoc2)C3)c1,6.46%
6,O=C(N1CCCC1)N1CCC2(CCN(Cc3ccccn3)C2=O)C1 (stereo not drawn),2.54%
7,CN1CCC(c2nnc3ccc(C(=O)NC4CCCC4)cn23)C1 (stereo not drawn),15%
8,O=C(Cc1ccccc1)N1CCCC2(COCCN(CC3CC3)C2)C1 (stereo not drawn),-0.0192%
9,c1cnc(N2CCC3(CN(CC4CCOC4)C3)C2)nc1 (stereo not drawn),24.1%
10,COCCN1C[C@@H]2[C@@H](OC)CCN(C(=O)Cc3ccccc3)[C@@H]2C1,-1.17%
11,Cc1ncoc1C(=O)N1C[C@H]2CCC[C@@]2(COCc2cccnc2)C1,3.21%
12,Cc1oncc1C(=O)NCc1cc(=O)n2c(n1)CN(C(C)C)CCC2,-4.07%
13,CCCN1CCCn2c(nc(CNC(=O)c3cnoc3C)cc2=O)C1,16.5%
14,O=C(c1ccsc1)N1C[C@H]2CCC[C@@]2(COCc2cccnc2)C1,22.5%
15,c1cnc(N2CCCC3(CCN(CC4CCOC4)CC3)C2)nc1 (stereo not drawn),19%
16,O=c1cc(Cn2cncn2)nc2n1CCCN(Cc1ccc(F)cc1)C2,0.75%
17,Cn1ccnc1C(=O)N1CCC2(CC1)CC(Oc1cccnc1)CO2 (stereo not drawn),-9.75%
18,COCC1CN(CC2CC2)Cc2nn(CC3CC3)cc21 (stereo not drawn),12.3%
19,CN1CCOCC2(CCCN(C(=O)c3ccccc3F)C2)C1 (stereo not drawn),13.4%
20,CN1CC(=O)N(c2ccsc2)CC12CCN(C(=O)c1cccn1C)C2 (stereo not drawn),-5.46%
21,CN1CC(=O)N(c2ccsc2)CC12CCN(C(=O)CC1CCCC1)C2 (stereo not drawn),-0.558%
22,COCC1CC2(CCN(Cc3ccco3)CC2)CN1C(C)C (stereo not drawn),6.8%

row,Structure (SMILES),cytotoxicity at 70.5 h
1,O=C(NC[C@]12COC[C@H]1CN(Cc1cccnc1)C2)c1ccsc1,11.5%
2,O=C1CC(c2ccncc2)C2(CCN(Cc3ccc(F)cc3)CC2)N1 (stereo not drawn),-9.81%
3,CN(C)CCOCC1CN(Cc2ccoc2)Cc2nnn(C)c21 (stereo not drawn),-11.2%
4,Cn1nnc2c1C(COCc1ccccn1)CN(Cc1ccoc1)C2 (stereo not drawn),-12.1%
5,O=C1CC(c2ccncc2)C2(CCN(CCc3ccccc3)CC2)N1 (stereo not drawn),-6.87%
6,CO[C@@H]1CC[C@H]2[C@H]1OCCN2Cc1ccccn1,18.3%
7,O=C1COC2(CCN(CC3CCOCC3)CC2)CN1Cc1ccccn1,-0.458%
8,CCN(C)c1ncnc2c1CCN(Cc1ccc(F)cc1)CC2,19.9%
9,Cc1nc(CN2CCO[C@H]3[C@@H](Oc4ccccn4)CC[C@@H]32)cs1,18.6%
10,O=C(c1ccncc1)N1CCC2(CC1)CCN(Cc1ccccn1)C2=O,15.2%
11,c1ccc(CO[C@@H]2CC[C@H]3[C@H]2OCCN3Cc2ccsc2)nc1,8.96%
12,Cc1noc(C)c1CN1CCO[C@H]2CN(Cc3cncn3C)C[C@H]21,19%
13,Cc1noc(C)c1CN1CCO[C@H]2CN(Cc3ccc(F)cc3)C[C@H]21,0.623%
14,c1cnc(N2CCC3(CCN(CC4CCOC4)CC3)CC2)nc1 (stereo not drawn),1.98%
15,CN1CC(=O)N(c2cccc(F)c2)CC12CCN(CC1CCOCC1)C2 (stereo not drawn),5.35%
16,Cc1ccc(N2CCC3(CCN(C(=O)c4ccccn4)CC3)CC2)nn1,-5.97%
17,CN1CCNC(=O)C12CCN(Cc1ccco1)CC2,-8.79%
18,COCC1CC2(CCN(Cc3ccncc3)CC2)CN1C(C)C (stereo not drawn),-7.56%
19,CCN(C)c1ncnc2c1CCN(Cc1ccncc1)CC2,-0.527%
20,Cc1ccoc1C(=O)N1Cc2c(CN3CCCCC3)nn(C)c2C1,0.575%
